Results taken from paper PMC12501029, “Discovery of a CNS active GSK3 degrader using orthogonally reactive linker screening” (Nature Communications, 2025).
≈ marks a conversion by molar mass, not a printed value. Read-outs that look alike come from different tables or passages of the source.

Experiments:
[1] = Intrinsic clearance (Cli), human liver microsomes; assay type: in vitro ADME; conditions: 0.5 µM, scaling factor 40 mg microsomal protein per g liver
Description: (§1) Test compound (0.5 µM) was incubated with female CD1 mouse, male rat Han Wistar and pooled human liver microsomes (Xenotech^TM; 0.5 mg/mL 50 mM potassium phosphate buffer, pH7.4) and the reaction started with addition of excess NADPH (8 mg/mL 50 mM potassium phosphate buffer, pH7.4). Immediately, at time zero, then at 3, 6, 9, 15 and 30 min an aliquot (50 µL) of the incubation mixture was removed and mixed with acetonitrile (100 uL) to stop the reaction. An internal standard was added to all samples, the samples centrifuged to sediment precipitated protein and the plates then sealed prior to UPLC-MSMS analysis (Xevo TQ-S Micro, Waters^TM). XLfit (IDBS, UK) was used to calculate the exponential decay and consequently the rate constant (k) from the ratio of peak area of test compound to internal standard at each timepoint. The rate of intrinsic clearance (CLi) of each test compound was then calculated using the following calculation:1 CLi(mL/min/gliver)=kxVxMicrosomalproteinyield Where V (mL/mg protein) is the incubation volume/mg protein added and microsomal protein yield is taken as 48 mg, 46 mg and 40 mg protein/g liver for mouse, rat and human, respectively. Verapamil (0.5 µM) was used as a positive control to confirm acceptable assay performance.

[2] = Brain binding, equilibrium dialysis; assay type: in vitro ADME; conditions: brain tissue homogenate
Description: As for plasma protein binding experiments, 96-well equilibrium dialysis apparatus was used to determine the free fraction in brain tissue homogenate for each compound (HT Dialysis LLC, Gales Ferry, CT). Membranes (12–14 kDA cut-off) were conditioned in deionised water for 60 min, followed by conditioning in 80:20 deionised water: ethanol for 20 min, and then rinsed in isotonic buffer before use. Frozen brain tissue was thawed and homogenised in artificial CSF at a ratio of 3:1. Homogenate was then spiked with test compound (final concentration 10 μg/mL), and 150 μL aliquots (n = 6 replicate determinations) loaded into the 96-well equilibrium dialysis plate. Dialysis vs artificial CSF was carried out for 5 h in a temperature-controlled incubator at ca. 37 °C (Barworld Scientific Ltd, UK) using an orbital microplate shaker at 100 revolutions/minute (Barworld Scientific Ltd, UK). 150 μL aliquots of spiked homogenate were stored at 37 °C and 4 °C for the course of the experiment to determine recovery. At the end of the incubation period, 50 μL aliquots of homogenate or buffer were transferred to a 96 deepwell plate (Waters^TM) and the composition in each was balanced with control fluid (50 μL), such that the volume of buffer to brain homogenate is the same. Sample extraction was performed by the addition of 200 μL of acetonitrile containing an appropriate internal standard. Samples were allowed to mix for 1 min and then centrifuged at 3000 rpm in 96-well blocks for 15 min (Allegra X12-R, Beckman Coulter, USA), after which 150 μL of supernatant was removed to 50 μL of water. All samples were analysed by UPLC-MS/MS. The unbound fraction was determined as the ratio of the peak area in buffer to that in homogenate using the following equation:2 Afu=Buffer/Matrix where Afu means apparent fraction unbound
Buffer = Analyte/IS ratio in buffer side […]
The recovery of the dialysed samples was calculated by comparing the sum of the peak areas (buffer and matrix) of any test compound at 37 °C to that of the same compound at 4 °C. […]

[3] = Intrinsic clearance (Cli), rat liver microsomes; assay type: in vitro ADME; conditions: 0.5 µM, scaling factor 46 mg microsomal protein per g liver
Description: as §1

[4] = RealSOL kinetic solubility; assay type: physicochemical; conditions: PBS pH 7.4, 24 h, 25 °C; for solubility kinetic at 24 h: phosphate buffered saline, aqueous buffer, kinetic from dmso stock
Description: Solubility was assessed using an 'in-house' developed method known as 'RealSOL'. This solubility method measures the solubility in physiological strength phosphate buffered saline starting from 10 mM DMSO solutions of the test compounds. Although a 'kinetic'^[1] solubility method, the long shaking times appears to give solubility values that reflect more closely those made from solid samples when compared to a previous nephelometric method (unpublished in-house data).
Test compounds were dissolved in DMSO to give 10 mM solutions. Solubility test samples were prepared by adding a volume (5 µL) of the 10 mM solution to a volume (195 µL) of phosphate buffered saline, pH 7.4 (Sigma-Aldrich, Cat no. P4417, made as per manufacturer’s instructions). This solution was then mixed for 24 h (rotary mixing, 900 rpm, 25 °C) excluding light.
After mixing, the solubility test samples were filtered to remove any undissolved material using a proprietary filter (Millipore Multiscreen HTS filter, 96-well format). Samples were drawn through the filter using a vacuum.
The filtrate from the above was analysed for dissolved drug compound using a truncated UHPLC methodology. A Shimadzu Nexera X2 UHPLC system was used, with a reversed-phase column and a simple formic acid gradient elution. The UHPLC parameters are shown in Supporting Information Table 5.
A calibration solution was prepared in the following way: the same 10 mM solution used to prepare the solubility test sample was diluted in DMSO to give a 500 µM solution. This solution was then again diluted with 50:50 acetonitrile: water to give a 50 µM solution. Aliquots (0.2, 2.0 and 5.0 µL) of this 50 µM solution were then injected onto the UHPLC system and the areas of the resultant peaks integrated to produce a calibration line. Aliquots of the test sample filtrate (0.4 and 5.0 µL) were then injected onto the UHPLC system and the resultant peak areas for any peaks corresponding to the test compound determined and quantified using the calibration line (the injection volume that gave a peak area closest to the calibrated range was used for determining solubility).

[5] = molecular target: T1, GSK3β-HiBiT (GSK3β-HiBiT KI HEK293 cells) (Homo sapiens, UniProt P49841); assay: HiBiT lytic degradation assay / high-throughput screen, 24 h; assay type: cell-based; conditions: 24 h treatment; for DC50: pure (resynthesised, HPLC purified) compound
T1 construct: we generated endogenously tagged GSK3β-HiBiT knock-in (KI) HEK293 cells; endogenous in cells; host or cells: GSK3β-HiBiT knock-in HEK293 cells (CRISPR/Cas9, single-cell clone)
T1 sequence (P49841 whole entry): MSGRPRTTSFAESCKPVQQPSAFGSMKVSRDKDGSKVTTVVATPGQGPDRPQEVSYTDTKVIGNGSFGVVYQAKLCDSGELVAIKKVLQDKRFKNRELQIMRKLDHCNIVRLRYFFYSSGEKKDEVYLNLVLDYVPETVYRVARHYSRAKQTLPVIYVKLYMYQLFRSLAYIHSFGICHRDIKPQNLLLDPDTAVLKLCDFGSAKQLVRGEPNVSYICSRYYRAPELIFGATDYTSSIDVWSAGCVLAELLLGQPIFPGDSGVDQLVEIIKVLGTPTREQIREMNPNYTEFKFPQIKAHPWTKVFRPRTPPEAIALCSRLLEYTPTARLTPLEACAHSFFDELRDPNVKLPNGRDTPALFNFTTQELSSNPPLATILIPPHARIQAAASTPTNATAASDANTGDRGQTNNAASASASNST
Description: Crude compounds were assumed to be 10 mM concentration in DMSO and after generating libraries directly used in biological tests in degradation screens. Stock solutions were serially diluted into white bottom opaque 384-well plates (Perkin Elmer) using Echo500 (Labcyte) and DMSO was backfilled to maintain same DMSO content in each well for all concentrations. […] HiBiT lytic assay buffer (Promega) prepared according to the manufacturer’s instructions and added onto each well using Multidrop^TM Combi reagent dispenser. Luminescence signal was measured on PheraStar plate reader (BMG) and obtained data normalised to DMSO conditions using Excel and further analysed using GraphPad Prism (v10.1.2) and degradation curves were generated using 4-parameter non-linear regression fit to calculate DC50 and Dmax values. Data points associated with concentrations displaying a hook effect were excluded prior to DC50 and Dmax calculation.

[6] = HEK293, crude mixture, stock assumed 10 mM
[7] = HEK293, pure (resynthesised, HPLC purified) compound
[8] = 10 μg/mL, 5 h dialysis, read-out: Brain Tissue Binding (Fu)

| SMILES | Scaled Microsomal Stability HuClint [1] [ml/min/g liver] | fraction unbound at 5 h, 10 μg/mL ([2]; brain binding, read-out: measured free fraction in brain) | Scaled Microsomal Stability RatClint [3] [ml/min/g liver] | RealSol [4] | solubility kinetic at 24 h [4] [µM] | Dmax [5, 6] [%] | Dmax [5, 7] [%] | DC50 ([5]; listed as KH1 (24)) | fraction unbound at 5 h, 10 μg/mL [2, 8] | DC50 ([5]; listed as KH2 (26)) |
| --- | --- | --- | --- | --- | --- | --- | --- | --- | --- | --- |
| Cn1nc(N2CCC(=O)NC2=O)c2ccc(CN3CCN(Cc4ccc(-c5cn(-c6ccc(-c7cn8nccc(C(=O)Nc9cnccc9N9CCOCC9)c8n7)cc6)nn5)nc4)CC3)cc21 [compound 24] | 0.88 | 0.0012 | 0.51 | low micromolar range | 2.7 (≈ 2.43 µg/mL) | 91 | 93 | picomolar to single-digit nanomolar range | – | – |
| O=C1CCC(NC(=O)c2ccc(CN3CCN(Cc4ccc(-c5cn(-c6ccc(-c7cn8nccc(C(=O)Nc9cnccc9N9CCOCC9)c8n7)cc6)nn5)nc4)CC3)cn2)C(=O)N1 (stereo not shown) [compound 22] | 3.6 | – | 0.71 | – | < 1 | 89 | 87 | – | 0.0029 | – |
| Cn1nc(N2CCC(=O)NC2=O)c2ccc(CN3CCN(CCCc4cn(-c5ccc(-c6cn7nccc(C(=O)Nc8cnccc8N8CCOCC8)c7n6)cc5)nn4)CC3)cc21 [compound 26] | 1.6 | – | 1.3 | low micromolar range | 2.3 (≈ 1.95 µg/mL) | 78 | 80 | – | 0.012 | picomolar to single-digit nanomolar range |
